Data from patent publication US20030050248A1 (priority 2000, published 2003).
Converted amounts (≈) assume the structure as drawn. Ends that are not written are not given here. Peptide text beside a SMILES is read from it. * marks the point of attachment. Fmoc = O=C(OCC1c2ccccc2-c2ccccc21)*; X1 = O=C(Sc1ccccc1)*

Tests used:
[1] = system: RNAIII; type: cell-based, S. aureus
[2] = system: S. aureus; experiment: Mouse model, Staph injected IP 20 min prior to drug injection (IP); type: in vivo, mice; conditions: for % Survival at 24 hr.: 20 min after Staph; for Number of mice that survived at 24 hours post-injection relative to vehicle (in words): VIF-1 20 or 15 mg/kg, FTB 10 mg/kg
Experimental: (§1) The assay was carried out by injecting a fixed amount of a S. aureus culture, typically containing from about 5×10^9 cells from an early exponential growth stage culture, by intraperitoneal (IP) injection into mice, based on the method described by Thakker et al., 1998.
In another approach, S. aureus was injected IP 20 minutes prior to IP injection of VIF-1 or FTB.
The commonly used anti-Staphylococcal antibiotics, methicillin and vancomycin, were tested in this model.

[3] = system: S. aureus
[4] = system: S. warneri
[5] = system: S. aureus; type: cell-based
[6] = system: S. aureus; experiment: Mouse model, Staph mixed with drug prior to IP injection; type: in vivo, mice; conditions: for % Survival at 24 hr.: mixed with Staph prior to IP injection; for Number of mice that survived at 24 hours post-injection (in words): VIF-1 3 or 15 mg/kg, FTB 1, 2 or 5 mg/kg
Experimental: as §1
In one study, the S. aureus was mixed with VIF-1 or FTB, prior to IP injection.

[7] = system: S. haemolyticus; type: cell-based
[8] = system: S. epidermidis (51625); type: cell-based
[9] = system: RNAIII; conditions: reported by Balaban et al., 1998; cited from earlier work

Q: For `C[C@@H](O)[C@H](NC(=O)[C@H](Cc1cn(C(=O)Sc2ccccc2)c2ccccc12)NC(=O)[C@@H]1CCCN1C(=O)[C@H](CO)NC(=O)[C@H](Cc1ccc(O)cc1)NC(=O)OCC1c2ccccc2-c2ccccc21)C(=O)N[C@@H](CC(N)=O)C(=O)N[C@@H](Cc1ccccc1)C(=O)O` [VIF-1, (Fmoc-Tyr)-Ser-Pro-Trp(phenylthiocarbamate)-Thr-Asn-Phe] (Fmoc-YSPW(X1)TNF-OH; C-terminus assumed), which “Inhibition of RNA III activation” value [1] is on record?
A: 1.5 µg/mL

Q: What about the “% Survival at 24 hr.” value ([2]; 6 mg/kg IP) of the same compound?
A: 13%

Q: And the “% Survival at 24 hr.” value ([2]; 15 mg/kg IP)?
A: 50%

Q: What about the “% Survival at 24 hr.” value ([2]; 20 mg/kg IP) of the same compound?
A: 67%

Q: And the “Number of mice that survived at 24 hours post-injection relative to vehicle (in words)” value [2]?
A: effective to significantly increase the number of mice that survived

Q: What about the “IC50, α-toxin production” value [3] of the same compound?
A: 0.6 µg/mL (≈ 0.472 µM)

Q: And the “Inhibition of α-Hemolysin production” value [3]?
A: 1.1 µg/mL

Q: And the “Inhibition of α-toxin production (in words)” value [3]?
A: inhibited α-toxin production

Q: What about the “IC50, α-toxin production” value [4] of the same compound?
A: 0.1 µg/mL (≈ 0.0786 µM)

Q: And the “IC50 for inhibition of hemolysin production” value [4]?
A: 0.10 µg/mL

Q: And the “Inhibition of hemolysin production (in words)” value [4]?
A: potently inhibited

Q: And the “Lowest concentration that suppressed release of TSST-1” value [5]?
A: 0.2 µg/mL

Q: And the “% Survival at 24 hr.” value ([6]; 1 mg/kg)?
A: 67%

Q: What about the “% Survival at 24 hr.” value ([6]; 3 mg/kg) of the same compound?
A: 83%

Q: What about the “% Survival at 24 hr.” value ([6]; 15 mg/kg) of the same compound?
A: 83%

Q: What about the “Number of mice that survived at 24 hours post-injection (in words)” value [6] of the same compound?
A: effective to significantly increase the number of mice that survived

Q: For `O=C(NC1(C(=O)O)CCCCC1)OCC1c2ccccc2-c2ccccc21` [Reference #86, Fmoc-1-amino-1-cyclohexane carboxylic acid], which “Inhibition of RNA III activation” value [1] is on record?
A: 3.0 (3) μg/ml

Q: What about the “IC50, α-toxin production” value [7] of the same compound?
A: 0.6 µg/mL (≈ 1.64 µM)

Q: What about the “Inhibition of α-Hemolysin production” value [3] of the same compound?
A: 2.1 (3) μg/ml

Q: What about the “Inhibition of α-toxin production (in words)” value [3] of the same compound?
A: inhibited α-toxin production

Q: What about the “IC50, α-toxin production” value [4] of the same compound?
A: 0.6 µg/mL (≈ 1.64 µM)

Q: And the “Inhibition of TSST-1” value [5]?
A: 10.0 µg/mL

Q: What about the “IC50, α-toxin production” value [8] of the same compound?
A: 0.4 µg/mL (≈ 1.09 µM)

Q: For `O=C(O)[C@H]1c2ccccc2CCN1C(=O)OCC1c2ccccc2-c2ccccc21` [Reference #16], which “Inhibition of RNA III activation” value [1] is on record?
A: 3.5 (3) μg/ml

Q: What about the “IC50, α-toxin production” value [7] of the same compound?
A: 0.6 µg/mL (≈ 1.5 µM)

Q: What about the “Inhibition of α-Hemolysin production” value [3] of the same compound?
A: 1.3 (3) μg/ml

Q: And the “Inhibition of α-toxin production (in words)” value [3]?
A: inhibited α-toxin production

Q: What about the “IC50, α-toxin production” value [4] of the same compound?
A: 0.6 µg/mL (≈ 1.5 µM)

Q: What about the “Inhibition of TSST-1” value [5] of the same compound?
A: 4.0 µg/mL

Q: What about the “IC50, α-toxin production” value [8] of the same compound?
A: 0.5 µg/mL (≈ 1.25 µM)

Q: For “ProCysThrAsnPhe (PCTNF; printed: ProCysThrAsnPhe) [peptide 1]”, which “Inhibition of induction of RNAIII (in words)” value [9] is on record?
A: inactive

Q: Which “Inhibition of RNA III activation” value [1] does the source give for `O=C(Nc1ccccc1C(=O)O)OCC1c2ccccc2-c2ccccc21` [Reference #4, Fmoc-2-aminobenzoic acid] here?
A: 2.9 (3) μg/ml

Q: And the “IC50, α-toxin production” value [7]?
A: 0.7 µg/mL (≈ 1.95 µM)

Q: And the “Inhibition of α-Hemolysin production” value [3]?
A: 0.9 (5) μg/ml

Q: And the “Inhibition of α-toxin production (in words)” value [3]?
A: inhibited α-toxin production

Q: What about the “IC50, α-toxin production” value [4] of the same compound?
A: 0.6 µg/mL (≈ 1.67 µM)

Q: And the “Inhibition of TSST-1” value [5]?
A: 2.0 µg/mL

Q: And the “IC50, α-toxin production” value [8]?
A: 0.5 µg/mL (≈ 1.39 µM)

Q: What does the source list for `O=C(O)[C@@H]1CC[C@H](c2ccccc2)N1C(=O)OCC1c2ccccc2-c2ccccc21` [Reference #113, (2S,5R)-Fmoc-5-phenyl-pyrrolidine-2-carboxylic acid]?
A: Inhibition of RNA III activation [1]: 3.0 (1) μg/ml; IC50, α-toxin production [7]: 0.7 µg/mL (≈ 1.69 µM); IC50, α-toxin production [3]: 0.9 µg/mL (≈ 2.18 µM); Inhibition of α-Hemolysin production [3]: 1.7 (5) μg/ml; Inhibition of α-toxin production (in words) [3]: inhibited α-toxin production; IC50, α-toxin production [4]: 0.6 µg/mL (≈ 1.45 µM); Inhibition of TSST-1 [5]: 6.0 µg/mL; IC50, α-toxin production [8]: 0.5 µg/mL (≈ 1.21 µM)

Q: With `CC(C)(C)OC(=O)n1cc(C[C@H](NC(=O)OCC2c3ccccc3-c3ccccc32)C(=O)O)c2ccccc21` [Reference #35, Fmoc-L-Trp(Boc)-OH] as the compound, how does the “Inhibition of RNA III activation” value [1] read?
A: 1.4 µg/mL

Q: What about the “IC50, α-toxin production” value [7] of the same compound?
A: 0.6 µg/mL (≈ 1.14 µM)

Q: And the “% Survival at 24 hr.” value ([2]; 2 mg/kg IP)?
A: 25%

Q: And the “% Survival at 24 hr.” value ([2]; 10 mg/kg IP)?
A: 71%

Q: And the “Number of mice that survived at 24 hours post-injection relative to vehicle (in words)” value [2]?
A: effective to significantly increase the number of mice that survived

Q: And the “IC50, α-toxin production” value [3]?
A: 0.8 µg/mL (≈ 1.52 µM)

Q: And the “Inhibition of α-Hemolysin production” value [3]?
A: 1.2 (13) μg/ml

Q: What about the “Inhibition of α-toxin production (in words)” value [3] of the same compound?
A: inhibited α-toxin production

Q: And the “IC50, α-toxin production” value [4]?
A: 0.6 µg/mL (≈ 1.14 µM)

Q: And the “Inhibition of TSST-1” value [5]?
A: 5.0 µg/mL

Q: What about the “% Survival at 24 hr.” value ([6]; 0.2 mg/kg) of the same compound?
A: 0%

Q: And the “% Survival at 24 hr.” value ([6]; 1 mg/kg)?
A: 83%

Q: And the “% Survival at 24 hr.” value ([6]; 2 mg/kg)?
A: 67%

Q: And the “% Survival at 24 hr.” value ([6]; 5 mg/kg)?
A: 83%

Q: And the “Number of mice that survived at 24 hours post-injection (in words)” value [6]?
A: effective to significantly increase the number of mice that survived

Q: And the “IC50, α-toxin production” value [8]?
A: 0.5 µg/mL (≈ 0.95 µM)

Q: Which “Inhibition of RNAIII induction (in words)” value [1] does the source give for YSPWTNF [PEP, reference compound] here?
A: no significant activity

Q: What about the “Inhibition of α-toxin / virulence factor production (in words)” value [3] of the same compound?
A: no significant activity

Q: And the “Inhibition of induction of RNAIII (in words)” value [9]?
A: inhibit induction of RNAIII as effectively as RIP

Q: For `O=C(N[C@@H](C/C=C/c1ccccc1)C(=O)O)OCC1c2ccccc2-c2ccccc21` [Reference #124, Fmoc-L-styrylalanine], which “Inhibition of RNA III activation” value [1] is on record?
A: 2.9 (1) μg/ml

Q: What about the “IC50, α-toxin production” value [7] of the same compound?
A: 0.5 µg/mL (≈ 1.21 µM)

Q: And the “Inhibition of α-Hemolysin production” value [3]?
A: 2.0 (4) μg/ml

Q: What about the “Inhibition of α-toxin production (in words)” value [3] of the same compound?
A: inhibited α-toxin production

Q: What about the “IC50, α-toxin production” value [4] of the same compound?
A: 0.7 µg/mL (≈ 1.69 µM)

Q: And the “Inhibition of TSST-1” value [5]?
A: 10.0 µg/mL

Q: What about the “IC50, α-toxin production” value [8] of the same compound?
A: 0.6 µg/mL (≈ 1.45 µM)
